In PubChem BioAssay AID2060885 (Molecular Pharmacology Branch, DTP, NCI, 2025):

System: NCI-H23 complex spheroids with HUVEC/MSC, viability
Assay: Anticancer human tumor NCI-H23 cell line growth inhibition [RAS];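 also: spheroids exposed to compound for 7 days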;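 as to viability, T/C: 100% = DMSO vehicle control viability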
Conditions: for IC50: curve of first compound; for viability, T/C: stronger effect = lower value
From the text: RAS pathway inhibitors in Combinations in Complex Spheroids
A high-throughput screen of multi-cell type tumor spheroids was designed to identify active combinations of RAS pathway inhibitors and targeted small molecules. Complex spheroids include a stromal component modeled by human endothelial cells (HUVEC) and fibroblasts modeled by human mesenchymal stem cells (MSCs). The concentration ranges selected for each drug and investigational agent were based upon clinically achievable concentrations if the clinical Cmax of the agent was known.
Compounds. The drugs and investigational agents: abemaciclib (NSC768073), cobimetinib (NSC768068), divarasib (GDC6063, NSC841802), docetaxel (NSC628503), GDC-1971 (RLY-1971, NSC841576), gemcitabine (NSC613327), inavolisib (NSC800729), ipatasertib (NSC767898), KB-0742 (NSC834161), MRTX-1133 (NSC836407), osimertinib (NSC779217), RMC-4630 (NSC839698), RMC-6236 (NSC851965), RMC-6291 (NSC852671), Ro-3306 (NSC812927), sapanisertib (NSC764658), SN-38 (NSC673596), staurosporine (NSC755774), SY5609 (NSC837396), and tovorafenib (DAY101, NSC766906), were obtained from the National Cancer Institute (NCI) Developmental Therapeutics Program Chemical Repository. The FDA-approved anticancer drug set is available from the NCI Developmental Therapeutics Program. […] The stock solutions were prepared in dimethyl sulfoxide (DMSO, Sigma-Aldrich, St. Louis, MO, cat. D2650) at 800-fold the tested concentration and stored at -70 degrees C prior to their use. All drugs and investigational agents were tested over a range starting from a high concentration at or near the clinical Cmax and decreasing in half-log increments. If the clinical Cmax for an agent had not been determined, the highest concentration tested was 10 microM.
Cell Culture. All cells were maintained in an incubator at 37 degrees C and 5% CO2 with 95% humidity. The PDC lines were cultured according to standard operating procedures established by the NCI PDMR. All PDCs were thawed and cultured in Matrigel-coated flasks prepared with a working solution of 1X Ham's F-12 nutrient mix, without supplementation (Invitrogen, Waltham, MA, cat. 11765054), 100 U/mL penicillin-streptomycin (Invitrogen, cat. 15140122), and 2.5% Matrigel (Corning Inc., Corning, NY, cat. 354248) for the first three passages. The 362531-283-R-J2-PDC and 782815-120-R-J1-PDC lines were cultured in 6C/Colon 1B media, which includes advanced DMEM/F-12 (Thermo Fisher Scientific, cat. 12634028), 10 mM HEPES (Thermo Fisher Scientific, cat. 15630080), 1X GlutaMAX supplement (Thermo Fisher Scientific, cat. 35050061), 0.1 mg/mL primocin (InvivoGen, San Diego, CA, cat. ant-pm-2), 10% defined fetal bovine serum, heat inactivated (HyClone Laboratories Inc., Logan, UT, cat. SH30070.03HI), 50% L-WRN conditioned media (ATCC, cat. CRL-3276), 1.25 mM N-Acetyl-L-cysteine (Sigma-Aldrich, cat. A9165), 10 mM nicotinamide (Sigma-Aldrich, cat. N0636), 1X B-27 supplement (Thermo Fisher Scientific, cat. 17504044), 1X N-2 supplement (Thermo Fisher Scientific, cat. 17502048), 50 ng/mL human EGF (Thermo Fisher Scientific, cat. PHG0311), and 10 microM Y-27632 dihydrochloride (Tocris Bioscience, cat. 1254). The K12877-001-R-J1-PDC line was cultured in 6I media, which includes all 6C/Colon 1B media plus 10 ng/mL human FGF-10 (PeproTech, cat. 100-26), 1 ng/mL human FGF-2 (PeproTech, cat. 100-18B), 1 µM prostaglandin E2 (Tocris Bioscience, cat. 2296), […] hydrocortisone (Sigma-Aldrich, cat. H4001), and […] bovine insulin (Sigma-Aldrich, cat. I6634). The K86415-001-R-J1-PDC line was cultured in 6D media, which includes all 6C/Colon 1B media components minus the L-WRN conditioned media. The 485176-168-R4-J1-PDC was cultured in PANC media, which includes all 6C/Colon 1B media plus 100 ng/mL human FGF-10 (PeproTech, cat. 100-26), 500 nM SB-431542 (Selleckchem, cat. S1067), and 10 nM gastrin (Tocris Bioscience, cat. 3006). […]

CCc1c2c(nc3ccc(O)cc13)-c1cc3c(c(=O)n1C2)COC(=O)[C@]3(O)CC + C#Cc1c(F)ccc2cc(O)cc(-c3ncc4c(N5CC6CCC(C5)N6)nc(OCC56CCCN5CC(F)C6)nc4c3F)c12
IC50 (second compound 0.0316 µM): 5.66 nM | IC50 (second compound 0.1 µM): 4.78 nM | IC50 (second compound 0.316 µM): 4.89 nM | IC50 (second compound 1 µM): 2.89 nM | IC50 (second compound 3.16 µM): 1.25 nM | IC50 (second compound 10 µM): < 0.949 nM | viability, T/C (second compound 0.0316 µM, first compound 0.000949 µM): 74.6% | viability, T/C (second compound 0.0316 µM, first compound 0.003 µM): 75.5% | viability, T/C (second compound 0.0316 µM, first compound 0.00949 µM): 29.9% | viability, T/C (second compound 0.0316 µM, first compound 0.03 µM): 13.3% | viability, T/C (second compound 0.0316 µM, first compound 0.0949 µM): 9.2% | viability, T/C (second compound 0.0316 µM, first compound 0.3 µM): 5.86% | viability, T/C (second compound 0.1 µM, first compound 0.000949 µM): 87.8% | viability, T/C (second compound 0.1 µM, first compound 0.003 µM): 64.6% | viability, T/C (second compound 0.1 µM, first compound 0.00949 µM): 28.2% | viability, T/C (second compound 0.1 µM, first compound 0.03 µM): 14.7% | viability, T/C (second compound 0.1 µM, first compound 0.0949 µM): 9.07% | viability, T/C (second compound 0.1 µM, first compound 0.3 µM): 6.92% | viability, T/C (second compound 0.316 µM, first compound 0.000949 µM): 96.7% | viability, T/C (second compound 0.316 µM, first compound 0.003 µM): 67.8% | viability, T/C (second compound 0.316 µM, first compound 0.00949 µM): 25.4% | viability, T/C (second compound 0.316 µM, first compound 0.03 µM): 12.8% | viability, T/C (second compound 0.316 µM, first compound 0.0949 µM): 9.27% | viability, T/C (second compound 0.316 µM, first compound 0.3 µM): 5.24% | viability, T/C (second compound 1 µM, first compound 0.000949 µM): 86.9% | viability, T/C (second compound 1 µM, first compound 0.003 µM): 49.4% | viability, T/C (second compound 1 µM, first compound 0.00949 µM): 18.9% | viability, T/C (second compound 1 µM, first compound 0.03 µM): 12.2% | viability, T/C (second compound 1 µM, first compound 0.0949 µM): 7.17% | viability, T/C (second compound 1 µM, first compound 0.3 µM): 4.02% | viability, T/C (second compound 3.16 µM, first compound 0.000949 µM): 56.1% | viability, T/C (second compound 3.16 µM, first compound 0.003 µM): 30.8% | viability, T/C (second compound 3.16 µM, first compound 0.00949 µM): 11.7% | viability, T/C (second compound 3.16 µM, first compound 0.03 µM): 5.93% | viability, T/C (second compound 3.16 µM, first compound 0.0949 µM): 3.68% | viability, T/C (second compound 3.16 µM, first compound 0.3 µM): 2.2% | viability, T/C (second compound 10 µM, first compound 0.000949 µM): 31.7% | viability, T/C (second compound 10 µM, first compound 0.003 µM): 20.2% | viability, T/C (second compound 10 µM, first compound 0.00949 µM): 8.85% | viability, T/C (second compound 10 µM, first compound 0.03 µM): 5.36% | viability, T/C (second compound 10 µM, first compound 0.0949 µM): 3.22% | viability, T/C (second compound 10 µM, first compound 0.3 µM): 2.27%

C=CC(=O)Nc1cc(Nc2nccc(-c3cn(C)c4ccccc34)n2)c(OC)cc1N(C)CCN(C)C + CCn1c(-c2cc(N3CCN(C)CC3)cnc2C(C)OC)c2c3cc(ccc31)-c1csc(n1)CC(NC(=O)C1CC1C)C(=O)N1CCCC(N1)C(=O)OCC(C)(C)C2
IC50 (second compound 0.000949 µM): < 3.16 nM | IC50 (second compound 0.003 µM): < 3.16 nM | IC50 (second compound 0.00949 µM): < 3.16 nM | IC50 (second compound 0.03 µM): < 3.16 nM | IC50 (second compound 0.0949 µM): < 3.16 nM | IC50 (second compound 0.3 µM): < 3.16 nM | viability, T/C (second compound 0.000949 µM, first compound 0.00316 µM): 51.5% | viability, T/C (second compound 0.000949 µM, first compound 0.01 µM): 45.7% | viability, T/C (second compound 0.000949 µM, first compound 0.0316 µM): 34.4% | viability, T/C (second compound 0.000949 µM, first compound 0.1 µM): 50.4% | viability, T/C (second compound 0.000949 µM, first compound 0.316 µM): 31.4% | viability, T/C (second compound 0.000949 µM, first compound 1 µM): 27.6% | viability, T/C (second compound 0.003 µM, first compound 0.00316 µM): 35.8% | viability, T/C (second compound 0.003 µM, first compound 0.01 µM): 32.6% | viability, T/C (second compound 0.003 µM, first compound 0.0316 µM): 30.1% | viability, T/C (second compound 0.003 µM, first compound 0.1 µM): 29.8% | viability, T/C (second compound 0.003 µM, first compound 0.316 µM): 27.1% | viability, T/C (second compound 0.003 µM, first compound 1 µM): 19% | viability, T/C (second compound 0.00949 µM, first compound 0.00316 µM): 30.7% | viability, T/C (second compound 0.00949 µM, first compound 0.01 µM): 27.9% | viability, T/C (second compound 0.00949 µM, first compound 0.0316 µM): 29.3% | viability, T/C (second compound 0.00949 µM, first compound 0.1 µM): 25.4% | viability, T/C (second compound 0.00949 µM, first compound 0.316 µM): 22.1% | viability, T/C (second compound 0.00949 µM, first compound 1 µM): 15.6% | viability, T/C (second compound 0.03 µM, first compound 0.00316 µM): 27.5% | viability, T/C (second compound 0.03 µM, first compound 0.01 µM): 23.6% | viability, T/C (second compound 0.03 µM, first compound 0.0316 µM): 29.1% | viability, T/C (second compound 0.03 µM, first compound 0.1 µM): 25% | viability, T/C (second compound 0.03 µM, first compound 0.316 µM): 17.5% | viability, T/C (second compound 0.03 µM, first compound 1 µM): 15% | viability, T/C (second compound 0.0949 µM, first compound 0.00316 µM): 18.7% | viability, T/C (second compound 0.0949 µM, first compound 0.01 µM): 19.6% | viability, T/C (second compound 0.0949 µM, first compound 0.0316 µM): 22.2% | viability, T/C (second compound 0.0949 µM, first compound 0.1 µM): 16.4% | viability, T/C (second compound 0.0949 µM, first compound 0.316 µM): 8.97% | viability, T/C (second compound 0.0949 µM, first compound 1 µM): 12.2% | viability, T/C (second compound 0.3 µM, first compound 0.00316 µM): 16.5% | viability, T/C (second compound 0.3 µM, first compound 0.01 µM): 18.1% | viability, T/C (second compound 0.3 µM, first compound 0.0316 µM): 17.2% | viability, T/C (second compound 0.3 µM, first compound 0.1 µM): 12.3% | viability, T/C (second compound 0.3 µM, first compound 0.316 µM): 10.5% | viability, T/C (second compound 0.3 µM, first compound 1 µM): 11.8%
